{
  "source": "patent US20100092559A1",
  "about": "(OsteoGeneX Inc., priority 2008, published 2010)",
  "key": {"Wnt pathway": {"tested_on": "Wnt pathway", "test": "Wnt pathway modulation to promote bone growth (FIG. 1)", "conditions": "doses of 2.5 ng (low), 60 ng (medium), 125 ng (high)"}, "C57BL/6 mice": {"tested_on": "C57BL/6 mice", "test": "Bone growth in four month old male C57BL/6 mice, daily i.p. for 30 days (uCT, histomorphometry, pQCT)", "type": "in vivo, mouse", "description": "Study endpoints included measurement of trabecular lumbar vertebrae 5 (LVB5) by uCT, showing 65% increase in bone volume over baseline at 75 mg/kg (FIG. 2)."}, "mouse": {"tested_on": "mouse", "test": "micro-CT bone formation assay in mice for SOST antagonist candidates", "type": "in vivo", "conditions": "test vs control solution, complete dosing schedule", "excerpt": "Compounds useful in the methods of the present invention can be identified via a variety of methods known to one of skill in the art. Several exemplary methods for identifying such antagonists are described herein, including cell-based and in vitro techniques (Journal of Bone and Mineral Research 2006, 21(11), 1738-1749). A general method of identifying SOST antagonists involves evaluating the effects of antagonist candidates on bone formation under controlled conditions. Preferably bone formation is determined using micro-CT techniques on live animals. Preferred animals include rodents, more preferred are primates. Femur, tibia and vertebrae bones are particularly useful subjects for such study.\nBriefly, the test animal is treated with a predetermined dose of a SOST antagonist candidate. […]\nOnce the dosing schedule has been completed, both test and control animals are examined to determine the quantity of bone formation present. […] Where necessary, levels of bone formation can be calculated by determining the volume of bone formation present in each animal. […]\nFor example, the mouse test animal is treated with a predetermined dose of a SOST antagonist candidate for a complete dosing schedule. […] Once the dosing schedule has been completed, both test and control animals are examined with sacrifice using micro-CT to determine the quantity of bone formation present."}},
  "data": [
    {"smiles": "COc1cc2c(cc1O)C[C@H]1c3c(cc(O)c(OC)c3-2)CCN1C", "note": "[(S)-boldine]", "values": [
      {"measurement": "modulating the Wnt pathway to promote bone growth", "setting": "Wnt pathway", "value": "modulating the Wnt pathway to promote bone growth"},
      {"measurement": "increase in BV/TV of femur over baseline controls, pQCT", "setting": "C57BL/6 mice; 60 mg/kg", "value": 8, "unit": "%"},
      {"measurement": "increase in bone volume over baseline, trabecular lumbar vertebrae 5 (LVB5) by uCT", "setting": "C57BL/6 mice; 75 mg/kg i.p. daily for 30 days, male C57BL/6 mice, FIG. 2", "value": 65, "unit": "%"},
      {"measurement": "increase in BV/TV in trabecular long bone over saline controls, histomorphometry", "setting": "C57BL/6 mice; all animals in both L (0.75 mg/kg) and H (75 mg/kg) groups, i.p. daily 30 days, p=0.05", "value": 78, "unit": "%"},
      {"measurement": "bone growth (quantity of bone formation by micro-CT)", "setting": "mouse", "value": "promoting bone growth"}
    ]}
  ]
}
